Laboratory results reported in patent US20250129086A1, “COMPOUND FOR DEGRADING EGFR PROTEIN AND USE THEREOF” (TYK MEDICINES, INC., priority 2021, published 2025).

What was measured:
EGFR = target: T1, EGFR (Homo sapiens, UniProt P00533, DEL746-750); experiment: EGFR PROTAC In Cell Western assay in HCC827; type: cell-based; settings: HCC827, EGFR degradation, 16 hours of incubation
T1 construct: host or cells: HCC827
Text: Test Example 2 EGFR PROTAC in Cell Western Assay
HCC827 cell culture medium was purchased from Corning. Cell line HCC827 was purchased from BeNa Culture Collection; EGF Receptor (D38B1) XP Rabbit mAb antibody and β-Actin (8H10D10) Mouse mAb antibody were from CST. IRDye 800CW, IRDye 680RD, and Intercept blocking solution (PBS) were purchased from Licor. Triton-100 was purchased from sigma, and 96-well black cell culture imaging microtiter plates were purchased from Agilent.
1) HCC827 cells were cell counted and cells were inoculated into 96-well black cell culture imaging microtiter plates at a density of 40,000 cells per well, with 100 μl per well. The plate was incubated overnight in a CO2 incubator.
2) Day 1: A gradient dilution of the compound to be tested was added to the cells of the culture plate (with a starting concentration of […], 9 concentrations, a dilution ratio of 1:3, 2 duplicate wells), with a final concentration of DMSO being 0.5%, and a blank control of DMSO without compound. The plate was placed in the cell culture incubator for a final 16 hours of incubation.
3) The culture medium was removed from the 96 wells with a pipette and the residual medium was washed with […] of PBS per well on a shaker for 5 min. After the removal of PBS, cells were quickly fixed by adding 150 μl of fresh fixation buffer (3.7% paraformaldehyde) and incubated for 20 min at room temperature.
4) The fixation buffer was removed and […] of Triton elution buffer (0.3% Triton-100) was added to wash for four times on a shaker for 5 minutes each time.
5)[…] LI-COR Odyssey blocking solution was added and the cells were incubated for 1.5 hours at room temperature with slow shaking on a shaker.
6) To block the samples, a primary antibody against EGFR and Actin were prepared using Antibody Dilution Buffer at a ratio of 1:300. The blocking solution was poured out and the diluted primary antibody was added (at a total volume of 50 μl/per well). The cell plate was covered and incubated at 4° C. overnight.
7) The cell plate was washed four times with PBS+Triton X-100 for 5 minutes each time.
8) Fluorescently labeled secondary antibodies IRDye® 680RD and IRDye® 800CW were diluted with Antibody Dilution Buffer (with a ratio of 1:600, at a total volume of 50 μl/well) and then incubated for one hour at room temperature, protected from light.
9) The cell plate was washed four times with PBS+Triton X-100 for 5 minutes each time.
After pipetting the PBS thoroughly, the plate was inverted and imaged on a Burroughs imager. A multiple exposure program was selected, IRDye 680RD Blot was chosen for the first channel, and IRDye 800CW Blot was chosen for the second channel. […] The blank group was the DMSO group, EGFR/Actin was calculated as the EGFR value of the corresponding sample wells, and the degradation rate=100-100*EGFR signal/DMSO signal. The DC50 and Dmax of the degraded EGFR proteins were calculated by fitting curves using the Prism software, 3-parameter method.

[1] = test system: H1975 (EGFR L858R/T790M double mutation); experiment: Cell antiproliferative assay (CTG, 72 h), H1975; type: cell-based, human; settings: Homo sapiens, NCI-H1975, 72 h
Method in brief: (§1)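 Viability by CTG luminescence after 72 h compound exposure, normalised between blank medium and 0.1% DMSO controls, with IC50 from fitted curves. Dosing in triplicate, top 10,000 nM, 4-fold dilutions, applied about 24 h after plating 1500-2500 cells per well.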

[2] = test system: HCC827 (exon 19 deletion mutation); experiment: Cell antiproliferative assay (CTG, 72 h), HCC827; type: cell-based, human; settings: Homo sapiens, HCC827, 72 h
Method in brief: as §1

[3] = test system: PC-9 (EGFR exon 19 deletion); experiment: Cell antiproliferative assay (CTG, 72 h), PC-9; type: cell-based, human; settings: Homo sapiens, PC-9, 72 h
Method in brief: as §1

T1 sequence (P00533 with tags, fused parts or gaps DEL746-750): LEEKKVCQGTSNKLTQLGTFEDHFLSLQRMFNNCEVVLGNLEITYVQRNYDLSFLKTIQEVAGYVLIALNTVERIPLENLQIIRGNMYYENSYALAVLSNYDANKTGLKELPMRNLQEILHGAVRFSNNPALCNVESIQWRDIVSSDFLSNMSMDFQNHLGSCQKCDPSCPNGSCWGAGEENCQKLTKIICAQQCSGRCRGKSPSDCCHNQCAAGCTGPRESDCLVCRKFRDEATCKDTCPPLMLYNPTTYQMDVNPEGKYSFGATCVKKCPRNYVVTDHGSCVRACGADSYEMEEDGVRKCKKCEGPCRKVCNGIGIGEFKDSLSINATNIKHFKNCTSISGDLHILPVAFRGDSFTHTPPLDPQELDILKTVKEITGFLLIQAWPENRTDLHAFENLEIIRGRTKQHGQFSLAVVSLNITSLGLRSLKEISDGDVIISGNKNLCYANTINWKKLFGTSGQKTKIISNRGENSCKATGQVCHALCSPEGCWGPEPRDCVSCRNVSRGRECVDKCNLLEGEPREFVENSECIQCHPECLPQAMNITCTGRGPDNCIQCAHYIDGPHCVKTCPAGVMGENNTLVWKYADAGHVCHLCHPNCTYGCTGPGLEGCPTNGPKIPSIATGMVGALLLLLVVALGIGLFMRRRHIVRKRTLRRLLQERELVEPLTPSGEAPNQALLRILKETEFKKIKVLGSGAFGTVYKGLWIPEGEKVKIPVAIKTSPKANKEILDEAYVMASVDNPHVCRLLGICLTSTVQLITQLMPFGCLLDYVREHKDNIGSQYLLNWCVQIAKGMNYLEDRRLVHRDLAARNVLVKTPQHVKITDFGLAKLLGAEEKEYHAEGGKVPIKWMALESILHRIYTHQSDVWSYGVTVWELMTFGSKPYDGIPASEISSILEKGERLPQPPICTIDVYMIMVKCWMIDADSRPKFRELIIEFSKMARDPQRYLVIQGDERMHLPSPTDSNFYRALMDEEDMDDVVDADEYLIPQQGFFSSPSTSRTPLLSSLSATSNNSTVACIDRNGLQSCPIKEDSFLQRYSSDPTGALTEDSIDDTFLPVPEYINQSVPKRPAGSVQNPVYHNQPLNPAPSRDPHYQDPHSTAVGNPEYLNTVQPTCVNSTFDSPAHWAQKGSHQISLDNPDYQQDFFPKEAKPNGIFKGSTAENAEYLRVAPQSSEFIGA

SMILES | Dmax (EGFR; HCC827, Table 4) [%] | Dmax (EGFR; HCC827, Table 5) [%] | DC50 (EGFR; Table 4) [nM] | DC50 (EGFR; Table 5) [nM] | IC50 ([1]; Table 2, H1975 cells) [nM] | IC50 ([1]; Table 3, H1975 cells) [nM] | IC50 ([2]; Table 2, HCC827 cells) [nM] | IC50 ([2]; Table 3, HCC827 cells) [nM] | IC50 ([3]; Table 2, PC-9 cells) [nM] | IC50 ([3]; Table 3, PC-9 cells) [nM]
COc1cc(N2CCC(N3CCN(C(=O)C4CCN(CC5CCN(c6ccc7c(c6)C(=O)N(C6CCC(=O)NC6=O)C7=O)CC5)CC4)CC3)CC2)ccc1Nc1ncc(Cl)c(Nc2ccccc2P(C)(C)=O)n1 (stereo not drawn) [Comparative Compound 2, reference compound] | 50 to 70 | 64.7 | 10 to 100 | 22.3 | 100 to 1000 | 186 | 100 to 1000 | 221 | ≥ 1000 | 1940
O=C1CCC(Nc2ccc(C3CCN(CC(=O)N4CCN(c5ccc(-c6cc(F)c7c(c6)C(=O)N(C(C(=O)Nc6nccs6)c6ncn8c6CCC8)C7)cc5)CC4)CC3)cc2)C(=O)N1 (stereo not drawn) [Comparative Compound 1, reference compound] | < 50 |  | ≥ 1000 |  | 100 to 1000 | 548 | ≥ 1000 | > 5000 | ≥ 1000 | > 5000
CNC(=O)c1ccccc1Nc1nc(Nc2cc(C)c(N3CCN(C(=O)CN4CCC(c5ccc(NC6CCC(=O)NC6=O)cc5)CC4)CC3)cc2OC)ncc1Cl (stereo not drawn) [Compound T-254] | 70 to 100 |  | 10 to 100 |  | ≤ 10 |  | 10 to 100 |  | 10 to 100 | 
COc1cc(N2CCN(C(=O)CN3CCN(c4ccc(NC5CCC(=O)NC5=O)cc4)CC3)CC2)ccc1Nc1ncc(Br)c(Nc2ccccc2C(C)=O)n1 (stereo not drawn) [Compound T-84] | 70 to 100 |  | 10 to 100 |  | 10 to 100 |  | 100 to 1000 |  | 100 to 1000 | 
COc1cc(N2CCN(C(=O)CN3CCN(c4ccc(NC5CCC(=O)NC5=O)nc4)CC3)CC2)ccc1Nc1ncc(Cl)c(Nc2ccccc2C(C)=O)n1 (stereo not drawn) [Compound T-101] | 50 to 70 |  | 10 to 100 |  | 100 to 1000 |  | 100 to 1000 |  | 100 to 1000 | 
C=CC(=O)Nc1cc(Nc2ncc(Cl)c(Nc3ccccc3C(C)=O)n2)c(OC)cc1N1CCN(C(=O)CN2CCC(c3ccc(NC4CCC(=O)NC4=O)cc3)CC2)CC1 (stereo not drawn) [Compound T-91] | 50 to 70 |  | 10 to 100 |  | 10 to 100 |  | 10 to 100 |  | 100 to 1000 | 
CNC(=O)c1ccccc1Nc1nc(Nc2ccc(N3CCN(C(=O)CN4CCC(c5ccc(NC6CCC(=O)NC6=O)cc5)CC4)CC3)cc2OC)ncc1Br (stereo not drawn) [Compound T-185] | 70 to 100 |  | ≤ 10 |  | ≤ 10 |  | 10 to 100 |  | 100 to 1000 | 
COc1cc(N2CC3(CN(C(=O)CN4CCC(c5ccc(NC6CCC(=O)NC6=O)cc5)CC4)C3)C2)ccc1Nc1ncc(Cl)c(Nc2ccccc2C(C)=O)n1 (stereo not drawn) [Compound T-66] | < 50 |  | 10 to 100 |  | 10 to 100 |  | 100 to 1000 |  | ≥ 1000 | 
CC(=O)c1ccccc1Nc1nc(Nc2ccc(N3CCN(C(=O)CN4CCC(c5ccc(NC6CCC(=O)NC6=O)cc5)CC4)CC3)cc2Cl)ncc1Cl (stereo not drawn) [Compound T-333] | < 50 |  | 10 to 100 |  | 100 to 1000 |  | 100 to 1000 |  | 100 to 1000 | 
COc1cc(N2CCN(C(=O)CN3CCC(c4ccc(NC5CCC(=O)NC5=O)cc4)CC3)CC2)ccc1Nc1ncc(Cl)c(Nc2ccccc2C(=O)C(C)C)n1 (stereo not drawn) [Compound T-190] | 50 to 70 |  | ≥ 1000 |  | 10 to 100 |  | 100 to 1000 |  | 100 to 1000 | 
COc1cc(N2CCN(C(=O)CN3CCC(c4ccc(NC5CCC(=O)NC5=O)cc4)CC3)CC2)c(C)cc1Nc1ncc(Cl)c(Nc2ccccc2C(C)=O)n1 (stereo not drawn) [Compound T-57] | 50 to 70 |  | 10 to 100 |  | 10 to 100 |  | 100 to 1000 |  | 100 to 1000 | 
COc1cc(N2CCC(NC(=O)CN3CCC(c4ccc(NC5CCC(=O)NC5=O)cc4)CC3)CC2)ccc1Nc1ncc(Cl)c(Nc2ccccc2C(C)=O)n1 (stereo not drawn) [Compound T-336] | < 50 |  | 10 to 100 |  | 100 to 1000 |  | 100 to 1000 |  | 100 to 1000 | 
COc1nc(N2CCN(C(=O)CN3CCC(c4ccc(NC5CCC(=O)NC5=O)cc4)CC3)CC2)ccc1Nc1ncc(Cl)c(Nc2ccccc2P(C)(C)=O)n1 (stereo not drawn) [Compound T-203] | 50 to 70 |  | 10 to 100 |  | 10 to 100 |  | 10 to 100 |  | 100 to 1000 | 
CNC(=O)c1ccccc1Nc1nc(Nc2ccc(N3CCN(C(=O)CN4CCC(c5ccc(NC6CCC(=O)NC6=O)cc5)CC4)CC3)cc2OC)ncc1Cl (stereo not drawn) [Compound T-184] | 70 to 100 | 70.8 | 10 to 100 | 10.2 | ≤ 10 | 7.72 | 10 to 100 | 14.2 | 100 to 1000 | 122
COc1cc(N2CCN(C(=O)CN3CCC(c4ccc(NC5CCC(=O)NC5=O)cc4)CC3)CC2)ccc1Nc1ncc(Cl)c(Nc2ccccc2N(C)S(C)(=O)=O)n1 (stereo not drawn) [Compound T-227] | 50 to 70 |  | 10 to 100 |  | ≤ 10 |  | 10 to 100 |  | 10 to 100 | 
COc1cc(N2CC[C@H](N(C)C(=O)CN3CCC(c4ccc(NC5CCC(=O)NC5=O)cc4)CC3)C2)ccc1Nc1ncc(Cl)c(Nc2ccccc2C(C)=O)n1 (stereo partly drawn) [Compound T-172] | < 50 |  | 10 to 100 |  | 100 to 1000 |  | 10 to 100 |  | ≥ 1000 | 
COc1cc(N2CCN(C(=O)CN3CCC(c4ccc(NC5CCC(=O)NC5=O)cc4)CC3)CC2)ccc1Nc1ncc(Cl)c(Nc2ccccc2C(C)=O)n1 (stereo not drawn) [Compound T-12] | 70 to 100 | 70.5 | 10 to 100 | 15.6 | 10 to 100 | 34.3 | 100 to 1000 | 110 | 100 to 1000 | 324
COc1cc(N2CCN(C(=O)CN3CCC(c4ccc(NC5CCC(=O)NC5=O)cc4)CC3)CC2C)ccc1Nc1ncc(Cl)c(Nc2ccccc2C(C)=O)n1 (stereo not drawn) [Compound T-60] | 50 to 70 |  | 10 to 100 |  | 10 to 100 |  | 100 to 1000 |  | 100 to 1000 | 
